Data: US20040053847A1, “Diastereomeric peptitdes and pharmaceutical compositions comprising them” (priority 2000, published 2004)
≈ marks a conversion by molar mass, not a printed value. Read-outs that look alike come from different tables or passages of the source. Square brackets hold non-standard residues; d marks the D form. Peptide text beside a SMILES is read from it.

How the values were obtained:
[1] = target: trypsin (from bovine pancreas) (Bos taurus, UniProt P00760); assay: in vitro; settings: pH 7.3
Chain of trypsin (from bovine pancreas) (P00760 24-246): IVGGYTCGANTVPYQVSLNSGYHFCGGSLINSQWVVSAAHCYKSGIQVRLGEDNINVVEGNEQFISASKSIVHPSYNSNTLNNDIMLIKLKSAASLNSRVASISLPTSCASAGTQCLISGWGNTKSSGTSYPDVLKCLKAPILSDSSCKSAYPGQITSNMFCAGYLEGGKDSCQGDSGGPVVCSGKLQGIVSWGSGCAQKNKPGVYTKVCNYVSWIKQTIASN
Protocol: (§1) In order to reach their target, the diastereomers have to withstand proteolytic digestion by proteases which may occur during the time of their administration site till they reach the target site. The susceptibility of the diastereomer 2 of the invention Is to proteolytic digestion by pepsin (from porcine stomach mucosa, Sigma), trypsin (from bovine pancreas, Sigma), and elastase (from human leukocytes, Sigma) was assessed by reverse-phase HPLC. As a control we used the native, all L-amino acid antimicrobial peptide cecropin B. Equal amounts of the peptides were dissolved in PBS (35 mM phosphate buffer/0.15 M NaCl, pH 7.3) at final concentration of 140 μM to which 25 μM of protease were added. The samples were incubated under agitation for 30 min at 37° C. After the addition of the appropriate protease inhibitor to stop the reaction, aliquots were injected to C18 column and the amounts of the intact diastereomers were evaluated using their absorbance at 215 nm.

[2] = target: pepsin (from porcine stomach mucosa) (Sus scrofa, UniProt P00791); assay: in vitro; settings: pig, pH 7.3
Chain of pepsin (from porcine stomach mucosa) (P00791 60-385): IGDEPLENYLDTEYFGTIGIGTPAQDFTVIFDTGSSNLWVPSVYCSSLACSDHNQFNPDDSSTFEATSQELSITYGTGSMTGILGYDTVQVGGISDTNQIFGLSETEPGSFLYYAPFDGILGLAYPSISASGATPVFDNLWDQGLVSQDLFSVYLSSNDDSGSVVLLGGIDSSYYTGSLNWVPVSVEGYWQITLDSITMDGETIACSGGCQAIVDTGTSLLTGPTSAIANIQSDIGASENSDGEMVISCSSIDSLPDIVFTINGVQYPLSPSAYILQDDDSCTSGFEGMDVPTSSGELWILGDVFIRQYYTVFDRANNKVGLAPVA
Protocol: as §1

[3] = target: T1, elastase (from human leukocytes) (Homo sapiens, UniProt P08246); assay: Proteolytic digestion assessed by reverse-phase HPLC; assay type: in vitro ADME
T1 construct: elastase (from human leukocytes, Sigma); purchased Sigma; host or cells: human leukocytes (cell-derived)
T1 sequence (P08246 30-247 limits assumed): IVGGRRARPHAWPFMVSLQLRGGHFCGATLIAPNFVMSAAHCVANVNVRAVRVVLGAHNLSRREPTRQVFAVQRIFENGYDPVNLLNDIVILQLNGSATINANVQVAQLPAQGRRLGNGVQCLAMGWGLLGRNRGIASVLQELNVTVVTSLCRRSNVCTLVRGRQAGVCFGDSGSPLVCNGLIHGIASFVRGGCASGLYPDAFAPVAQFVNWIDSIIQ

[4] = test system: Aspergillus niger ATCC 9642; assay type: cell-based
Protocol: (§2) The antifungal activity of the diastereomers was examined in sterile 96-well plates (Nunc F96 microtiter plates) in a final volume of 200 μL as follows: 100 μl of a suspension containing fungi at concentration of 1×10^4 Colony-Forming Units (CFU)/ml in culture medium (RPMI 1640, 0.165 M MOPS pH 7.0, with L-glutamine, without NaHCO3) was added to 100 μl of water containing the peptide in serial 2-fold dilutions in water. The fungi were incubated in the presence of the diastereomeric peptides for 24-48 h at 35° C. in a Binder KB115 incubator under agitation. Growth inhibition was determined by measuring the absorbance at 620 nm with a Microplate autoreader E1309 (Bio-tek Instruments). Antifungal activity is expressed as the minimal inhibitory concentration (MIC), the concentration at which 100% inhibition of growth was observed after the incubation time mentioned above. The fungi used were: Aspergillus niger ATCC 9642, Candida albicans ATCC 10231 and Cryptococcus neoformans ATCC 66031.

[5] = test system: Cryptococcus neoformans ATCC 66031; assay type: cell-based
Protocol: as §2

[6] = test system: Candida albicans ATCC 10231; assay type: cell-based
Protocol: as §2

[7] = Cell selectivity, Trypan blue cell viability, LC50; assay type: cell-based, mouse; settings: 50% cell mortality after 24 h incubation, medium without serum, read-out: Lethal Concentration (LC50), NIH-3T3 fibroblasts
[8] = test system: B16 F10 mouse melanoma cell line; assay: In vitro anticancer activity, Trypan blue cell viability, LC50
Protocol: (§3) The anticancer activity of the diastereomers 1, 2, 8, 9 and 10 was examined against B16 F10 mouse melanoma cell line. Melanoma cells were grown in RPMI-1640 medium supplemented with 10% fetal calf serum and antibiotics, at 37° C., in humidified atmosphere at 5% CO2 and 95% air. In addition, the cell-selectivity of the diastereomeric peptides was studied by examining their effect on NIH-3T3 normal fibroblasts cell line. NIH-3T3 mouse fibroblasts cells were grown in DMEM medium supplemented with 10% bovine calf serum and antibiotics under the same conditions as described above for B16 F10 mouse melanoma cells. Melanoma cells (2×10^5 cells ml^−1) or NIH-3T3 cells (2.5×10^5 cells ml^−1) were seeded in tissue culture plates (3.5 cm). After 48 h, cells were washed thrice with the corresponding medium. Then the cells were incubated at 37° C. in medium (without serum and antibiotics) in the presence of the tested diastereomeric peptides dissolved in PBS, at different concentrations. […] Following 24 h of incubation, the cells were harvested with trypsin (0.25%)-EDTA (0.05%) and centrifuiged for 10 min at 270×g. The precipitated cells were suspended in the corresponding medium and counted in a hemocytometer (Neubauer). Cell viability was determined by Trypan blue dye exclusion.

[9] = as above
Protocol: as §3

[10] = test system: Mycoplasma pneumoniae; assay type: cell-based; settings: 1 h
Protocol: In order to examine the activity of the diastereomers of the invention against mycoplasma, 500 μl of Mycoplasma pneumoniae cells were introduced into a cell culture flask containing 50 ml of SP-4 growth media (Jacob et al., 1985). The cells were grown at 37° C. for 3-4 days. Before the assay, the mycoplasma cells were washed 3 times with serum-free medium (without fetal calf serum) and then harvested into 5 ml of the same medium. The cells' concentration was adjusted to approximately 1×10^6 cells ml^−1. Thereafter, 150 μl of either diastereomer 1 or 2 in phosphate-buffered saline (PBS) were added to 150 μl mycoplasma cells. The mixture was incubated for 1 hour at room temperature. As a control, cells were incubated with PBS alone. At the end of the incubation period, 150 μl of the mixture were inoculated into tissue culture flasks (in duplicate) containing 15 ml SP-4 media. After 3-4 days, the mycoplasma viability was determined by counting the number of cells grown in each flask.

[11] = test system: methicilin-resistant Staphylococcus aureus (MRSA) ATCC 700698; assay type: cell-based
Protocol: (§4) The antibacterial activity of the peptides was examined in sterile 96-well plates (Nunc F96 microtiter plates) in a final volume of 100 μl as follows: Aliquots (50 μl) of a suspension containing bacteria at concentration of 1×10^6 Colony-Forming Units (CFU)/ml in culture LB (Lauria broth) medium were added to 50 μl of water containing the peptide in serial 2-fold dilutions in water. Inhibition of growth was determined by measuring the absorbance at 600 nm with a Microplate autoreader E1309 (Bio-tek Instruments), after an incubation time of 18-20 h at 37° C. Antibacterial activities were expressed as the minimal inhibitory concentration (MIC), the concentration at which 100% inhibition of growth was observed after 18-20 h of incubation. The bacteria used were: Escherichia coli ATCC 25922, Acinetobacter baumannii ATCC 19606, Pseudomonas aeruginosa ATCC 27853, Staphylococcus aureus ATCC 6538P, Enterococcus faecalis ATCC 29212, Enterobacter cloacae ATCC 49141. The antibacterial activity of peptides 2 and 6 was also examined against resistant bacteria: methicilin-resistant Staphylococcus aureus ([…]) ATCC 700698 and vancomycin-resistant Enterococcus faecium (VRE) ATCC 700221.

[12] = test system: vancomycin-resistant Enterococcus faecium (VRE) ATCC 700221; assay type: cell-based
Protocol: as §4

Structure (SMILES)	metabolised at 0.5 h, 140 μM [1]	metabolised at 0.5 h, 140 μM [2]	metabolised at 0.5 h, 140 μM ([3]; elastase from human leukocytes, 140 μM peptide, 25 μM protease, 30 min at 37° C., PBS pH 7.3, read-out: Proteolytic digestion, Elastase)	Activity against A. niger [4]	MIC, A. niger ATCC 9642 [4]	MIC, C. neoformans ATCC 66031 [5]	Activity against C. albicans [6]	MIC, C. albicans ATCC 10231 [6]	CC50 [7]	Selectivity between melanoma and NIH-3T3 cell lines ([8]; B16 F10 vs NIH-3T3)	CC50 [9]	MIC against Mycoplasma [10]	CC50 at 24 h ([7]; mouse, NIH-3T3 fibroblasts)	metabolised at 0.5 h, 140 μM ([3]; isolated enzyme elastase, pH 7.3)	Lethal Concentration (LC50), B16-F10 melanoma ([8]; 50% cell mortality after 24 h incubation, medium without serum)	Activity against resistant bacteria MRSA [11]	Activity against resistant bacteria VRE [12]
CC[C@H](C)[C@H](NC(=O)CNC(=O)[C@H](CC(N)=O)NC(=O)[C@H](CCCNC(=N)N)NC(=O)[C@@H](NC(=O)[C@H](CC(N)=O)NC(=O)[C@H](CCCNC(=N)N)NC(=O)CNC(=O)[C@H](CCSC)NC(=O)[C@H](CCCCN)NC(=O)[C@H](CCC(=O)O)NC(=O)[C@@H](NC(=O)[C@H](CCCCN)NC(=O)[C@H](CCCCN)NC(=O)[C@H](Cc1ccccc1)NC(=O)[C@@H](NC(=O)[C@H](CCCCN)NC(=O)[C@H](Cc1c[nH]c2ccccc12)NC(=O)[C@@H](N)CCCCN)C(C)C)[C@@H](C)CC)[C@@H](C)CC)C(=O)N[C@H](C(=O)N[C@@H](CCCCN)C(=O)N[C@@H](C)C(=O)NCC(=O)N1CCC[C@H]1C(=O)N[C@@H](C)C(=O)N[C@H](C(=O)N[C@@H](C)C(=O)N[C@H](C(=O)N[C@@H](CC(C)C)C(=O)NCC(=O)N[C@@H](CCC(=O)O)C(=O)N[C@@H](C)C(=O)N[C@@H](CCCCN)C(=O)N[C@@H](C)C(=O)N[C@@H](CC(C)C)C(N)=O)C(C)C)[C@@H](C)CC)C(C)C [Cecropin B, cecropin B, reference compound] (H-KWKVFKKIEKMGRNIRNGIVKAGPAIAVLGEAKAL-NH2)	100%	100%	100%														
CC(C)C[C@H](NC(=O)[C@H](CCCCN)NC(=O)[C@@H](CC(C)C)NC(=O)[C@@H](CC(C)C)NC(=O)[C@H](CC(C)C)NC(=O)[C@@H](N)CCCCN)C(=O)N[C@@H](CC(C)C)C(=O)N[C@H](CC(C)C)C(=O)N[C@@H](CCCCN)C(=O)N[C@H](CC(C)C)C(=O)N[C@@H](CC(C)C)C(=O)N[C@@H](CCCCN)C(N)=O [Peptide 1, [D]-L^3,4,8,10-K4L8, reference compound] (H-KL[dL][dL]KLL[dL]K[dL]LK-NH2; N-terminus assumed)				inactive	>200 µg/mL	4.7 µg/mL (≈ 3.28 µM)	inactive	>200 µg/mL	100 µg/mL (≈ 69.7 µM)	active against both cell lines at similar concentration	90 µg/mL (≈ 62.7 µM)	50 µg/mL (≈ 34.8 µM)					
CC(C)C[C@H](NC(=O)[C@H](CCCCN)NC(=O)[C@H](CC(C)C)NC(=O)[C@@H](CC(C)C)NC(=O)[C@H](CC(C)C)NC(=O)[C@@H](N)CCCCN)C(=O)N[C@@H](CC(C)C)C(=O)N[C@H](CCCCN)C(=O)N[C@H](CCCCN)C(=O)N[C@@H](CC(C)C)C(=O)N[C@@H](CC(C)C)C(=O)N[C@@H](CCCCN)C(=O)N[C@H](CC(C)C)C(=O)N[C@@H](CC(C)C)C(=O)N[C@@H](CCCCN)C(N)=O [Peptide 2, [D]-L^3,13,K^8,9-K6L9] (H-KL[dL]LKLL[dK][dK]LLK[dL]LK-NH2)	32%	10%			50 µg/mL (≈ 27.7 µM)	1.4 µg/mL (≈ 0.776 µM)		100 µg/mL (≈ 55.4 µM)				12.5 µg/mL (≈ 6.93 µM)	30 µg/mL (≈ 16.6 µM)	6%	9 µg/mL		
CC(C)C[C@H](NC(=O)[C@H](CC(C)C)NC(=O)[C@@H](CCCCN)NC(=O)[C@@H](CCCCN)NC(=O)[C@H](CC(C)C)NC(=O)[C@@H](CC(C)C)NC(=O)[C@H](CCCNC(=N)N)NC(=O)[C@H](CC(C)C)NC(=O)[C@@H](CC(C)C)NC(=O)[C@H](CC(C)C)NC(=O)[C@@H](N)CCCCN)C(=O)N[C@@H](CCCNC(=N)N)C(=O)N[C@H](CC(C)C)C(=O)N[C@@H](CC(C)C)C(=O)N[C@@H](CCCCN)C(N)=O [Peptide 6, [D]-L^3,6,13,K^8,9-K4R2L9] (H-KL[dL]LR[dL]L[dK][dK]LLR[dL]LK-NH2; N-terminus assumed)					200 µg/mL (≈ 107 µM)	1.5 µg/mL (≈ 0.806 µM)		150 µg/mL (≈ 80.6 µM)								highly active	highly active
